Values of other authors in paper PMC11748363, “Antimicrobial and Antiproliferative Properties of 2‐Phenyl‐N‐(Pyridin‐2‐yl)acetamides” (Chemical Biology & Drug Design, 2025).
Values after ≈ are worked out from the molar mass of the structure shown.

Tested on: Mycobacterium tuberculosis H37Ra
Design: method as in Nawrot et al. 2021
Conditions: previously published N‐pyridinyl benzamides; ref Nawrot et al. 2021; cited from earlier work

Row | SMILES | MIC Mtb H37Ra (μg/mL), previously published compounds [µg/mL]
1 | O=C(Nc1ccc(Cl)cn1)c1ccccc1Cl [C00003 R1=5-Cl,R2=2-Cl] | > 500
2 | COc1ccccc1C(=O)Nc1ccc(Cl)cn1 [C00003 R1=5-Cl,R2=2-OMe] | 31.25 (≈ 119 µM)
3 | O=C(Nc1ccc(Cl)cn1)c1cccc(C(F)(F)F)c1 [C00003 R1=5-Cl,R2=3-CF3] | 7.81 (≈ 26 µM)
4 | O=C(Nc1ccc(Cl)cn1)c1cccc(Cl)c1 [C00003 R1=5-Cl,R2=3-Cl] | 31.25 (≈ 117 µM)
5 | COc1cccc(C(=O)Nc2ccc(Cl)cn2)c1 [C00003 R1=5-Cl,R2=3-OMe] | 62.5 (≈ 238 µM)
6 | O=C(Nc1ccc(Cl)cn1)c1ccc(Cl)cc1 [C00003 R1=5-Cl,R2=4-Cl] | > 500
7 | COc1ccc(C(=O)Nc2ccc(Cl)cn2)cc1 [C00003 R1=5-Cl,R2=4-OMe] | 62.5 (≈ 238 µM)
8 | O=C(Nc1ccc(Cl)cn1)c1ccccc1 [C00003 R1=5-Cl,R2=H] | > 500
9 | O=C(Nc1cccc(Cl)n1)c1ccccc1Cl [C00003 R1=6-Cl,R2=2-Cl] | 62.5 (≈ 234 µM)
10 | COc1ccccc1C(=O)Nc1cccc(Cl)n1 [C00003 R1=6-Cl,R2=2-OMe] | > 500
11 | O=C(Nc1cccc(Cl)n1)c1cccc(C(F)(F)F)c1 [C00003 R1=6-Cl,R2=3-CF3] | 7.81 (≈ 26 µM)
12 | O=C(Nc1cccc(Cl)n1)c1cccc(Cl)c1 [C00003 R1=6-Cl,R2=3-Cl] | 15.625 (≈ 58.5 µM)
13 | COc1cccc(C(=O)Nc2cccc(Cl)n2)c1 [C00003 R1=6-Cl,R2=3-OMe] | 31.25 (≈ 119 µM)
